Test results: patent publication EP4389749A1, “SUBSTITUTED 3,7-DIHYDRO-1H-PURINE-2,6-DIONES AND USE THEREOF” (invIOs GmbH, priority 2022, dated 2024)

Key:
CD4+ T-cells = assay: Immunostimulation assay with anti-CD3/28 stimulated T-cells, CD69 expression by flow cytometry; assay type: cell-based, human; conditions: T-cell; purified human CD4+ and CD8+ T-cells, 1 µg/ml anti-CD3, 1 µg/ml anti-CD28, 16 hours, surface FACS; read-out: EC50 CD4+
How it was run: (§1)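 Human CD4+/CD8+ T-cells purified from buffy-coat PBMCs were stimulated with 1 µg/ml anti-CD3 and 1 µg/ml anti-CD28 plus compound (0.001–30 µM) for 16 h at 37 °C. CD69 measured by flow cytometry; DMSO set minimal, CD3/28 Dynabeads maximal activation; EC50 by variable-slope fit.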

CD8+ T-cells = assay: as above; assay type: cell-based, human; conditions: T-cell; purified human CD4+ and CD8+ T-cells, 1 µg/ml anti-CD3, 1 µg/ml anti-CD28, 16 hours, surface FACS; read-out: EC50 CD8+
How it was run: as §1

B16-SIY melanoma = assay: Efficacy on B16-SIY melanoma, in vivo tumor growth; conditions: p.o., over the course of 21 days, C57BL/6 mice, B16-SIY intradermal
Protocol: Eight-weeks-old C57BL/6 mice were purchased from Charles River. All animal experiments were in accordance with institutional guidelines of the Research Institute of Molecular Pathology (Austria) and approved according to the European Community rules of animal care with the permission of the Austrian Ministry of Science.
B16-SIY melanoma cells were cultured in DMEM containing 10 % FCS, 1 % PenStrep and 1 % glutamine and grown in a humidified incubator at 37 °C and 5 % CO2. For tumor inoculations sub-confluent B16-SIYcells were trypsinized, washed, counted and resuspended in PBS to a final concentration of 1×10^7 B16-SIY cells/ml.
30 C57BL/6 mice were inoculated intradermally with 1×10^6 B16-SIY cells and tumor bearing mice randomly assigned to 3 different groups […] post transplantation: Compound 142 30 mg/kg 3 days post B16-SIY inoculation and subsequent daily administration of 10 mg/kg (10 mice), Compound 142 9 mg/kg 3 days post B16-SIY inoculation and subsequent daily treatment of 3 mg/kg (10 mice), or vehicle control (10 mice). Compound 142 was diluted in 10 % DMSO, 20 % PEG400, 21 % HPbCD, 0.35 % HPMC and 48.65 % H2O and mice treated p.o. with 2 different treatment schedules: d3: 30 mg/kg + QD: 10 mg/kg or d3: 9 mg/kg + QD: 3 mg/kg (Figure 1). […] Tumors were measured daily and mice sacrificed 21 days post B16-SIY inoculation (Figure 1). […]

EC50 (CD4+ T-cells) | EC50 (CD8+ T-cells) | SMILES | Tumor volumes compared to vehicle control (B16-SIY melanoma; d3: 9 mg/kg + QD: 3 mg/kg) | Tumor volumes compared to vehicle control (B16-SIY melanoma; d3: 30 mg/kg + QD: 10 mg/kg)
0.5 to 1 µM | 0.5 to 1 µM | CC(O)Cn1c(=O)[nH]c(=O)c2c1nc(-c1ccc(Oc3ccc(OC(F)(F)F)cc3)cc1)n2C (stereo not drawn) [Compound 142, 3-(2-hydroxypropyl)-7-methyl-8-(4-(4-(trifluoromethoxy)phenoxy)phenyl)-3,7-dihydro-1H-purine-2,6-dione] | significantly reduced | significantly reduced
0.1 to 0.5 µM | 0.5 to 1 µM | CC(O)Cn1c(=O)[nH]c(=O)c2c1nc(-c1ccc(Oc3ccc(OC(F)(F)F)c(Cl)c3)cc1)n2C (stereo not drawn) [Compound 194, 8-(4-(3-chloro-4-(trifluoromethoxy)phenoxy)phenyl)-3-(2-hydroxypropyl)-7-methyl-3,7-dihydro-1H-purine-2,6-dione] | – | –
1 to 5 µM | 1 to 5 µM | CC(O)Cn1c(=O)[nH]c(=O)c2c1nc(-c1ccc(Oc3ccc(F)c(C(F)(F)F)c3)cc1)n2C (stereo not drawn) [Compound 195, 8-(4-(4-fluoro-3-(trifluoromethyl)phenoxy)phenyl)-3-(2-hydroxypropyl)-7-methyl-3,7-dihydro-1H-purine-2,6-dione] | – | –
1 to 5 µM | 1 to 5 µM | COc1cc(-c2nc3c(c(=O)[nH]c(=O)n3CC(C)O)n2C)ccc1Oc1ccc(OC(F)(F)F)cc1 (stereo not drawn) [Compound 196, 3-(2-hydroxypropyl)-8-(3-methoxy-4-(4-(trifluoromethoxy)phenoxy)phenyl)-7-methyl-3,7-dihydro-1H-purine-2,6-dione] | – | –
< 0.1 µM | 0.1 to 0.5 µM | Cn1c(-c2ccc(OCc3ccccc3)c(OC(F)(F)F)c2)nc2c1c(=O)[nH]c(=O)n2CC(CO)C(F)F (stereo not drawn) [Compound 198, 8-(4-(benzyloxy)-3-(trifluoromethoxy)phenyl)-3-(3,3-difluoro-2-(hydroxymethyl)propyl)-7-methyl-3,7-dihydro-1H-purine-2,6-dione] | – | –
< 0.1 µM | < 0.1 µM | Cn1c(-c2ccc(OCc3ccccc3)c(OC(F)(F)F)c2)nc2c1c(=O)[nH]c(=O)n2CC(O)C(F)F (stereo not drawn) [Compound 199, 8-(4-(benzyloxy)-3-(trifluoromethoxy)phenyl)-3-(3,3-difluoro-2-hydroxypropyl)-7-methyl-3,7-dihydro-1H-purine-2,6-dione] | – | –
0.5 to 1 µM | 0.1 to 0.5 µM | CC(O)Cn1c(=O)[nH]c(=O)c2c1nc(-c1ccc(OCCc3ccccc3)c(F)c1)n2C (stereo not drawn) [Compound 200, 8-(3-fluoro-4-phenethoxyphenyl)-3-(2-hydroxypropyl)-7-methyl-3,7-dihydro-1H-purine-2,6-dione] | – | –
0.1 to 0.5 µM | 0.1 to 0.5 µM | CC(O)Cn1c(=O)[nH]c(=O)c2c1nc(-c1ccc(OCCCc3ccccc3)c(F)c1)n2C (stereo not drawn) [Compound 201, 8-(3-fluoro-4-(3-phenylpropoxy)phenyl)-3-(2-hydroxypropyl)-7-methyl-3,7-dihydro-1H-purine-2,6-dione] | – | –
